# Measured values: patent US10683294B2, “5-5 fused rings as C5a inhibitors” (CHEMOCENTRYX, INC., priority 2017, dated 2020)
# Molecular target: C5aR (Homo sapiens (Human), UniProt P21730)
# Experiment: Chemotaxis assay (inhibition of C5aR mediated migration towards C5a)
# Assay type: cell-based
# Conditions: inhibition in the chemotaxis assay (Example 14 B.3); U937 or neutrophil cells, 0.03 nM C5a
# Experimental: U937 cells are a monocytic cell line which express C5aR, and are available from ATCC (VA). These cells were cultured as a suspension in RPMI-1640 medium supplemented with 2 mM L-glutamine, 1.5 g/L sodium bicarbonate, 4.5 g/L glucose, 10 mM HEPES, 1 mM sodium pyruvate, and 10% FBS. Cells were grown under 5% CO2/95% air, 100% humidity at 37° C. and subcultured twice weekly at 1:6 (cells were cultured at a density range of 1×10^5 to 2×10^6 cells/mL) and harvested at 1×10^6 cells/mL. Prior to assay, cells are treated overnight with 0.5 mM of cyclic AMP (Sigma, Ohio) and washed once prior to use. cAMP treated U937 cells can be used in C5aR ligand binding and functional assays.
# Optionally, human or murine neutrophils can be used to assay for compound activity. Neutrophils may be isolated from fresh human blood using density separation and centrifigation. Briefly, whole blood is incubated with equal parts 3% dextran and allowed to separate for 45 minutes. After separation, the top layer is layered on top of 15 mls of Ficoll (15 mls of Ficoll for every 30 mls of blood suspension) and centrifuged for 30 minutes at 400×g with no brake. The pellet at the bottom of the tube is then isolated and resuspended into PharmLyse RBC Lysis Buffer (BD Biosciences, San Jose, Calif.) after which the sample is again centrifuged for 10 minutes at 400×g with brake. The remaining cell pellet is resuspended as appropriate and consists of isolated neutrophils.
# Optionally, compounds may be further assayed for their ability to inhibit chemotaxis in cells. Chemotaxis assays are performed using 5 μm pore polycarbonate, polyvinylpyrrolidone-coated filters in 96-well chemotaxis chambers (Neuroprobe; Gaithersburg, Md.) using chemotaxis buffer (Hank's balanced salt solution (HBSS) and 1% FBS). C5aR ligands (i.e., C5a, R&D Systems; Minneapolis, Minn.) are use to evaluate compound mediated inhibition of C5aR mediated migration. Other chemokines (i.e., SDF-1α; R&D Systems; Minneapolis, Minn.) are used as specificity controls. The lower chamber is loaded with 29 μl of chemokine (i.e., 0.03 nM C5a) and varying amounts of compound; the top chamber contains 100,000 U937 or neutrophil cells in 20 μl. The chambers are incubated 1.5 hours at 37° C., and the number of cells in the lower chamber quantified either by direct cell counts in five high powered fields per well or by the CyQuant assay (Molecular Probes), a fluorescent dye method that measures nucleic acid content and microscopic observation.
# C5aR, sequence (P21730 whole entry): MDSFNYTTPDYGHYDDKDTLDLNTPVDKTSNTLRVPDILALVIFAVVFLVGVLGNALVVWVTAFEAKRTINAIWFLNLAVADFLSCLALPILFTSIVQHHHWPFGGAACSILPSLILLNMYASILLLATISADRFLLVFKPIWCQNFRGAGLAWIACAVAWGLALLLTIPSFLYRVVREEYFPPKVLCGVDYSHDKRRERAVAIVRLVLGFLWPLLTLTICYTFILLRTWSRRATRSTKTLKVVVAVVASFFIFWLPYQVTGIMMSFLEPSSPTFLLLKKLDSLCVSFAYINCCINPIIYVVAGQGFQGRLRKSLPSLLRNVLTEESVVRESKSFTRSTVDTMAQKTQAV
row,SMILES,IC50 [µM]
1,CCc1cccc(CC)c1-n1nc2c(c1-c1ccc(F)c3[nH]ccc13)CN(Cc1ccccc1F)C2(C)C [Compound 1.022],0.005 to 0.05
2,CCc1cccc(CC)c1-n1nc2c(c1-c1ccc(F)c3[nH]ccc13)CN(Cc1ccc(F)cc1Cl)C2(C)C [Compound 1.012],0.005 to 0.05
3,CCc1cccc(CC)c1-n1nc2c(c1-c1cc(F)c(OC)c3[nH]ccc13)CN(Cc1ccc(C(F)(F)F)cc1C(F)(F)F)C2(C)C [Compound 1.002],< 0.005
4,CCc1cccc(CC)c1-n1nc2c(c1-c1cc(F)c3[nH]ccc3c1)CN(Cc1ccc(C(F)(F)F)cc1C(F)(F)F)C2(C)C [Compound 1.027],0.005 to 0.05
5,CCc1cccc(CC)c1-n1nc2c(c1-c1ccc(F)c3[nH]ccc13)CN(C(=O)CNC(=O)OC(C)(C)C)C2(C)C [Compound 1.007],0.05 to 0.5
6,CCc1cccc(CC)c1-n1nc2c(c1-c1ccc(F)c3[nH]ccc13)CN(CC(C)(C)O)C2(C)C [Compound 1.009],0.05 to 0.5
7,CCc1cccc(CC)c1-n1nc2c(c1-c1cccc3[nH]cc(F)c13)CN(Cc1ccc(C(F)(F)F)cc1C(F)(F)F)C2(C)C [Compound 1.010],0.005 to 0.05

# The next lines start with the values.
row,IC50 [µM],SMILES
1,≥ 0.5,Cc1cccc(C)c1-n1nc2c(c1-c1ccc3[nH]ccc3c1)CN(C(=O)C1CCCC1)C2 [Compound 1.059]
2,0.005 to 0.05,CCc1cccc(CC)c1-n1nc2c(c1-c1ccc3[nH]ccc3c1)CN(Cc1cc(Cl)ccc1Cl)C2(C)C [Compound 1.046]
3,0.005 to 0.05,CCc1cccc(CC)c1-n1nc2c(c1-c1ccc(F)c3[nH]ccc13)CN(C(=O)C(C)(C)C)C2(C)C [Compound 1.033]
4,0.005 to 0.05,CCc1cccc(CC)c1-n1nc2c(c1-c1cccc3[nH]ccc13)CN(Cc1ccccc1C(F)(F)F)C2(C)C [Compound 1.044]
5,≥ 0.5,CCOC(C)(C)C(=O)N1Cc2nn(-c3c(C)cccc3C)c(-c3ccc4[nH]ccc4c3)c2C1 [Compound 1.054]
